# Reference: the supplement of paper PMC10307832
# What was measured:
# Test in all cases: relative viability (nuclei count vs DMSO), 5 days (fraction); higher = more cells survive
# NCI-H1355 = system: NCI-H1355
# Summary of the method: (§1)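 Each reported value is a median over duplicate plates. It expresses relative viability: treated-well nuclei count divided by vehicle-well nuclei count. Lung cancer cell lines in 1536-well plates were dosed by pin tool a day after seeding, alone with one drug or with a fixed anchor-drug dose plus five library-drug doses (not always all listed) in √10 steps, and nuclei were counted after 5 days.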
# NCI-H2170 = system: NCI-H2170
# Summary of the method: as §1
# NCI-H2009 = system: NCI-H2009
# Summary of the method: as §1
# NCI-H1734 = system: NCI-H1734
# Summary of the method: as §1
# LOU-NH91 = system: LOU-NH91
# Summary of the method: as §1
# NCI-H2405 = system: NCI-H2405
# Summary of the method: as §1
# NCI-H1395 = system: NCI-H1395
# Summary of the method: as §1
# NCI-H647 = system: NCI-H647
# Summary of the method: as §1
# HCC-827 = system: HCC-827
# Summary of the method: as §1
# BEN = system: BEN
# Summary of the method: as §1
# HCC-366 = system: HCC-366
# Summary of the method: as §1
# EKVX = system: EKVX
# Summary of the method: as §1
# NCI-H2342 = system: NCI-H2342
# Summary of the method: as §1
# HARA = system: HARA
# Summary of the method: as §1
# SK-MES-1 = system: SK-MES-1
# Summary of the method: as §1
# NCI-H661 = system: NCI-H661
# Summary of the method: as §1
# NCI-H1437 = system: NCI-H1437
# Summary of the method: as §1
# SK-LU-1 = system: SK-LU-1
# Summary of the method: as §1
# NCI-H522 = system: NCI-H522
# Summary of the method: as §1
# NCI-H2087 = system: NCI-H2087
# Summary of the method: as §1
# NCI-H1993 = system: NCI-H1993
# Summary of the method: as §1
compound,measurement,setting,value
Cc1sc2c(c1C)C(c1ccc(Cl)cc1)=N[C@@H](CC(=O)OC(C)(C)C)c1nnc(C)n1-2 [JQ1] + Cc1cc(Nc2cc(N3CCN(C)CC3)nc(Sc3ccc(NC(=O)C4CC4)cc3)n2)n[nH]1 [Tozasertib] (partner 0.1 µM),relative viability,NCI-H1355; first compound 0.04 µM,0.522
same,relative viability,NCI-H1355; first compound 0.1265 µM,0.387
same,relative viability,NCI-H1355; first compound 0.4 µM,0.324
same,relative viability,NCI-H1355; first compound 1.265 µM,0.23
same,relative viability,NCI-H1355; first compound 4 µM,0.202
same,relative viability,NCI-H2170; first compound 0.04 µM,0.711
same,relative viability,NCI-H2170; first compound 0.1265 µM,0.64
same,relative viability,NCI-H2170; first compound 0.4 µM,0.467
same,relative viability,NCI-H2170; first compound 1.265 µM,0.352
same,relative viability,NCI-H2170; first compound 4 µM,0.194
same,relative viability,NCI-H2009; first compound 0.04 µM,0.697
same,relative viability,NCI-H2009; first compound 0.1265 µM,0.414
same,relative viability,NCI-H2009; first compound 0.4 µM,0.385
same,relative viability,NCI-H2009; first compound 1.265 µM,0.199
same,relative viability,NCI-H2009; first compound 4 µM,0.187
same,relative viability,NCI-H1734; first compound 0.04 µM,0.259
same,relative viability,NCI-H1734; first compound 0.1265 µM,0.209
same,relative viability,NCI-H1734; first compound 0.4 µM,0.215
same,relative viability,NCI-H1734; first compound 1.265 µM,0.204
same,relative viability,NCI-H1734; first compound 4 µM,0.212
same,relative viability,LOU-NH91; first compound 0.04 µM,0.653
same,relative viability,LOU-NH91; first compound 0.1265 µM,0.453
same,relative viability,LOU-NH91; first compound 0.4 µM,0.255
same,relative viability,LOU-NH91; first compound 1.265 µM,0.359
same,relative viability,LOU-NH91; first compound 4 µM,0.299
same,relative viability,NCI-H2405; first compound 0.04 µM,0.716
same,relative viability,NCI-H2405; first compound 0.1265 µM,0.712
same,relative viability,NCI-H2405; first compound 0.4 µM,0.723
same,relative viability,NCI-H2405; first compound 1.265 µM,0.584
same,relative viability,NCI-H2405; first compound 4 µM,0.498
same,relative viability,NCI-H1395; first compound 0.04 µM,0.734
same,relative viability,NCI-H1395; first compound 0.1265 µM,0.681
same,relative viability,NCI-H1395; first compound 0.4 µM,0.652
same,relative viability,NCI-H1395; first compound 1.265 µM,0.495
same,relative viability,NCI-H1395; first compound 4 µM,0.419
same,relative viability,NCI-H647; first compound 0.04 µM,0.353
same,relative viability,NCI-H647; first compound 0.1265 µM,0.203
same,relative viability,NCI-H647; first compound 0.4 µM,0.202
same,relative viability,NCI-H647; first compound 1.265 µM,0.0994
same,relative viability,NCI-H647; first compound 4 µM,0.0445
same,relative viability,HCC-827; first compound 0.04 µM,0.398
same,relative viability,HCC-827; first compound 0.4 µM,0.328
same,relative viability,HCC-827; first compound 1.265 µM,0.27
same,relative viability,HCC-827; first compound 4 µM,0.213
same,relative viability,BEN; first compound 0.04 µM,0.57
same,relative viability,BEN; first compound 0.1265 µM,0.535
same,relative viability,BEN; first compound 0.4 µM,0.5
same,relative viability,BEN; first compound 1.265 µM,0.365
same,relative viability,BEN; first compound 4 µM,0.28
same,relative viability,HCC-366; first compound 0.04 µM,0.112
same,relative viability,HCC-366; first compound 0.4 µM,0.0922
same,relative viability,HCC-366; first compound 1.265 µM,0.0515
same,relative viability,HCC-366; first compound 4 µM,0.0708
same,relative viability,EKVX; first compound 0.04 µM,0.317
same,relative viability,EKVX; first compound 0.1265 µM,0.361
same,relative viability,EKVX; first compound 0.4 µM,0.336
same,relative viability,EKVX; first compound 1.265 µM,0.247
same,relative viability,EKVX; first compound 4 µM,0.185
same,relative viability,NCI-H2342; first compound 0.04 µM,0.65
same,relative viability,NCI-H2342; first compound 0.1265 µM,0.436
same,relative viability,NCI-H2342; first compound 0.4 µM,0.46
same,relative viability,NCI-H2342; first compound 1.265 µM,0.45
same,relative viability,NCI-H2342; first compound 4 µM,0.336
same,relative viability,HARA; first compound 0.04 µM,0.112
same,relative viability,HARA; first compound 0.1265 µM,0.122
same,relative viability,HARA; first compound 0.4 µM,0.123
same,relative viability,HARA; first compound 1.265 µM,0.08
same,relative viability,HARA; first compound 4 µM,0.0561
same,relative viability,SK-MES-1; first compound 0.04 µM,0.929
same,relative viability,SK-MES-1; first compound 0.1265 µM,0.507
same,relative viability,SK-MES-1; first compound 0.4 µM,0.419
same,relative viability,SK-MES-1; first compound 1.265 µM,0.208
same,relative viability,SK-MES-1; first compound 4 µM,0.171
same,relative viability,NCI-H661; first compound 0.04 µM,0.37
same,relative viability,NCI-H661; first compound 0.1265 µM,0.486
same,relative viability,NCI-H661; first compound 0.4 µM,0.37
same,relative viability,NCI-H661; first compound 1.265 µM,0.435
same,relative viability,NCI-H661; first compound 4 µM,0.401
same,relative viability,NCI-H1437; first compound 0.04 µM,0.421
same,relative viability,NCI-H1437; first compound 0.1265 µM,0.357
same,relative viability,NCI-H1437; first compound 0.4 µM,0.357
same,relative viability,NCI-H1437; first compound 1.265 µM,0.224
same,relative viability,NCI-H1437; first compound 4 µM,0.174
same,relative viability,SK-LU-1; first compound 0.04 µM,0.282
same,relative viability,SK-LU-1; first compound 0.1265 µM,0.27
same,relative viability,SK-LU-1; first compound 0.4 µM,0.249
same,relative viability,SK-LU-1; first compound 1.265 µM,0.0708
same,relative viability,SK-LU-1; first compound 4 µM,0.0741
same,relative viability,NCI-H522; first compound 0.04 µM,0.598
same,relative viability,NCI-H522; first compound 0.1265 µM,0.503
same,relative viability,NCI-H522; first compound 0.4 µM,0.454
same,relative viability,NCI-H522; first compound 1.265 µM,0.434
same,relative viability,NCI-H522; first compound 4 µM,0.339
same,relative viability,NCI-H2087; first compound 0.04 µM,0.253
same,relative viability,NCI-H2087; first compound 0.1265 µM,0.212
same,relative viability,NCI-H2087; first compound 0.4 µM,0.205
same,relative viability,NCI-H2087; first compound 1.265 µM,0.128
same,relative viability,NCI-H2087; first compound 4 µM,0.144
same,relative viability,NCI-H1993; first compound 0.04 µM,0.509
same,relative viability,NCI-H1993; first compound 0.1265 µM,0.62
same,relative viability,NCI-H1993; first compound 0.4 µM,0.513
same,relative viability,NCI-H1993; first compound 1.265 µM,0.424
same,relative viability,NCI-H1993; first compound 4 µM,0.489
